According to ChEMBL document CHEMBL3526014, “Correlation between bilirubin glucuronidation and estradiol-3-gluronidation in the presence of model UDP-glucuronosyltransferase 1A1 substrates/inhibitors” (Drug Metab Dispos, 2011):

T1: UDP-glucuronosyltransferase 1A1 (Homo sapiens, UniProt P22309)
T1 sequence (P22309 whole entry): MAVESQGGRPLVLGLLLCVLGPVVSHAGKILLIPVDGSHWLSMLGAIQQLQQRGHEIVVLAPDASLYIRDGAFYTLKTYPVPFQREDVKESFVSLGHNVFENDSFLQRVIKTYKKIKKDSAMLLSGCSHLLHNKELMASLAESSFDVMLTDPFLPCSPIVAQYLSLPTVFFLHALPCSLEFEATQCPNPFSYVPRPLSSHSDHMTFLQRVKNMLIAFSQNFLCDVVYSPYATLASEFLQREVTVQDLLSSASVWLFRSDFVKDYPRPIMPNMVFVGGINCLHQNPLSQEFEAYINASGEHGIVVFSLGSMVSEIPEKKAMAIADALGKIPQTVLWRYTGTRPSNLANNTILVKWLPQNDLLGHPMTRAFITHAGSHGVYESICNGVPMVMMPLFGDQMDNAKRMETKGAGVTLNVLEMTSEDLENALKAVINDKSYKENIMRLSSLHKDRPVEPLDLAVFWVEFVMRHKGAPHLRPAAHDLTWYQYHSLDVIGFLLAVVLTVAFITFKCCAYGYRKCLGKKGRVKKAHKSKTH

T2: UGT1A1 (Homo sapiens, UniProt P22309)
T2 sequence (P22309 whole entry): T1 sequence (P22309 whole entry)

B1: UDP-glucuronosyltransferase 1A1 (Homo sapiens) (protein)
chain: T1 sequence (P22309 whole entry)

Columns and labels:
[1] = biological target: T1, UDP-glucuronosyltransferase 1A1; test: Inhibition of human recombinant UGT1A1 expressed in HEK293 cells assessed as reduction in bilirubin glucuronidation by LC-MS/MS method; type: ADME, cell-based
[2] = biological target: T1, UDP-glucuronosyltransferase 1A1; test: Inhibition of human recombinant UGT1A1 expressed in HEK293 cells assessed as reduction in estradiol 3-glucuronidation by LC-MS/MS method; type: ADME, cell-based
[3] = biological target: T1, UDP-glucuronosyltransferase 1A1; test: Activation of human recombinant UGT1A1 expressed in HEK293 cells assessed as increase in estradiol 3-glucuronidation using 15 uM estradiol by LC-MS/MS method relative to untreated control; type: ADME, cell-based
[4] = biological target: T1, UDP-glucuronosyltransferase 1A1; test: Activation of human recombinant UGT1A1 expressed in HEK293 cells assessed as increase in estradiol 3-glucuronidation by LC-MS/MS method relative to untreated control; type: ADME, cell-based
[5] = biological target: T2, UGT1A1; test: Activation of human recombinant UGT1A1 expressed in HEK293 cells assessed as increase in estradiol 3-glucuronidation using 7.5 uM estradiol by LC-MS/MS method relative to untreated control; type: ADME, cell-based; conditions: probe estradiol (3-glucuronidation)
[6] = biological target: T1, UDP-glucuronosyltransferase 1A1; test: Inhibition of human recombinant UGT1A1 expressed in HEK293 cells assessed as reduction in estradiol 3-glucuronidation using 4 to 75 uM estradiol by LC-MS/MS method; type: ADME, cell-based
[7] = biological target: T1, UDP-glucuronosyltransferase 1A1; test: Activation of human recombinant UGT1A1 expressed in HEK293 cells assessed as increase in estradiol 3-glucuronidation at 6.25 uM by LC-MS/MS method; type: ADME, cell-based; conditions: hek293, 6.25 µM
[8] = biological target: T1, UDP-glucuronosyltransferase 1A1; test: Activation of human recombinant UGT1A1 expressed in HEK293 cells assessed as increase in estradiol 3-glucuronidation at 6.25 uM using 4 uM estradiol by LC-MS/MS method relative to untreated control; type: ADME, cell-based; conditions: hek293, 6.25 µM
[9] = biological target: T1, UDP-glucuronosyltransferase 1A1; test: Inhibition of human recombinant UGT1A1 expressed in HEK293 cells assessed as reduction in estradiol 3-glucuronidation at 50 uM using >15 uM estradiol by LC-MS/MS method; type: ADME, cell-based; conditions: hek293, 50 µM
[10] = substrate: CCc1c2c(nc3ccc(O)cc13)-c1cc3c(c(=O)n1C2)COC(=O)[C@]3(O)CC; test: Drug metabolism assessed as UGT1A1 (unknown origin)-mediated compound glucuronidation; type: ADME, Homo sapiens

| Molecule | IC50 [1] | IC50 ([2]; read-out: IC50) | other results |
| --- | --- | --- | --- |
| Cc1cc(=O)oc2cc(O)ccc12 [HYMECROMONE] | 100 µM | 100 µM |  |
| O=C(O)c1cccnc1Nc1cccc(C(F)(F)F)c1 [NIFLUMIC ACID] | 53 µM | 13 µM |  |
| C#C[C@]1(O)CC[C@H]2[C@@H]3CCc4cc(O)ccc4[C@H]3CC[C@@]21C [ETHINYL ESTRADIOL] | 21 µM | 44 µM | Activity [3]: 128%; Activity [4]: Active; Activity [5]: ≤ 140% |
| CCc1c2c(nc3ccc(O)cc13)-c1cc3c(c(=O)n1C2)COC(=O)[C@]3(O)CC [7-ETHYL-10-HYDROXYCAMPTOTHECIN] | 360 µM |  | IC50 ([2]; hek293): Not Active; inhibition (INH) [6]: 40% |
| CC(=O)N1CCN(c2ccc(OCC3COC(Cn4ccnc4)(c4ccc(Cl)cc4Cl)O3)cc2)CC1 (configuration not stated) [KETOCONAZOLE] | 27 µM | 13 µM |  |
| Cc1nnc(C(=O)NC(C)(C)c2nc(C(=O)NCc3ccc(F)cc3)c(O)c(=O)n2C)o1 | 170 µM | 190 µM |  |
| Oc1cccc2ccccc12 [1-NAPHTHOL] | 240 µM | 280 µM |  |
| O=c1cc(-c2ccccc2)oc2cc(O)c(O)c(O)c12 [BAICALEIN] | 7 µM | 4.4 µM |  |
| N[C@@H](Cc1cc(I)c(Oc2cc(I)c(O)c(I)c2)c(I)c1)C(=O)O [LEVOTHYROXINE] | 4.9 µM | 5.6 µM |  |
| O=c1c(-c2ccc(O)cc2)coc2cc(O)ccc12 [DAIDZEIN] | 7.3 µM | 120 µM | Activity [4]: Active; Activity [7]: Active; Activity [8]: 392%; inhibition (INH) [9]: Active |
| O=C1NC(=O)C(c2ccccc2)(c2ccc(O)cc2)N1 (configuration not stated) | 120 µM | 110 µM |  |
| O=C1c2ccc(O)cc2C(=O)c2ccc(O)cc21 | 3.6 µM | 4 µM |  |
| CC(C)=CCC/C(C)=C/CC/C(C)=C/CO [FARNESOL] | 47 µM | 40 µM |  |
| Nc1nc2ccc(OC(F)(F)F)cc2s1 [RILUZOLE] | 180 µM | 160 µM |  |
| B1 |  |  | Km [10]: 25 µM |
